# Measured values as given in ChEMBL document CHEMBL1201862, “PubChem BioAssay data set” (2004).
#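 96-well plates; 48 h exposure; 5 concentrations. Endpoints by linear interpolation between flanking doses. Not reached: highest tested concentration assigned. Here, GI50 denotes the concentration required for 50% inhibition of growth.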 Active and inactive are the calls of the source. No stated cut-off is given here; in the data, active = GI50 up to about 1.1 µM and inactive = higher.
# Assays:
# Assay in all cases: NCI anticancer screen, dose series, 48 h
# 786-0 = system: 786-0
# A498 = system: A498
# A549 = system: A549
# ACHN = system: ACHN
# BT-549 = system: BT-549
# CAKI-1 = system: CAKI-1
# CCRF-CEM = system: CCRF-CEM
# COLO 205 = system: COLO 205
# DU-145 = system: DU-145
# EKVX = system: EKVX
# HCC 2998 = system: HCC 2998
# HCT-116 = system: HCT-116
# HCT-15 = system: HCT-15
# HL-60 = system: HL-60
# HOP-62 = system: HOP-62
# HOP-92 = system: HOP-92
# HT-29 = system: HT-29
# Hs-578T = system: Hs-578T
# IGROV-1 = system: IGROV-1
# K562 = system: K562
# KM12 = system: KM12
# LOX IMVI = system: LOX IMVI
# M14 = system: M14
# MCF7 = system: MCF7
# MDA-MB-231 = system: MDA-MB-231
# MDA-MB-435 = system: MDA-MB-435
# MDA-N = system: MDA-N
# MOLT-4 = system: MOLT-4
# Malme-3M = system: Malme-3M
# NCI-H23 = system: NCI-H23
# NCI-H522 = system: NCI-H522
# NCI/ADR-RES = system: NCI/ADR-RES
# OVCAR-3 = system: OVCAR-3
# OVCAR-4 = system: OVCAR-4
# OVCAR-5 = system: OVCAR-5
# OVCAR-8 = system: OVCAR-8
# PC-3 = system: PC-3
# RPMI-8226 = system: RPMI-8226
# RXF 393 = system: RXF 393
# SF-268 = system: SF-268
# SF-295 = system: SF-295
# SF-539 = system: SF-539
# SK-MEL-28 = system: SK-MEL-28
# SK-MEL-2 = system: SK-MEL-2
# SK-MEL-5 = system: SK-MEL-5
# SN12C = system: SN12C
# SNB-19 = system: SNB-19
# SNB-75 = system: SNB-75
# SW-620 = system: SW-620
# T47D = system: T47D
# TK-10 = system: TK-10
# U-251 = system: U-251
# UACC-257 = system: UACC-257
# UACC-62 = system: UACC-62
# UO-31 = system: UO-31
# NCI-H226 = system: NCI-H226
# NCI-H460 = system: NCI-H460
# SK-OV-3 = system: SK-OV-3
smiles,measurement,setting,value
O=C(O)CSCC(=O)Nc1ccc2cccc3c2c1CC3,GI50,786-0,> 100 µM (inactive)
same,GI50,A498,> 100 µM (inactive)
same,GI50,A549,> 100 µM (inactive)
same,GI50,ACHN,> 100 µM (inactive)
same,GI50,BT-549,> 100 µM (inactive)
same,GI50,CAKI-1,> 100 µM (inactive)
same,GI50,CCRF-CEM,> 100 µM (inactive)
same,GI50,COLO 205,> 100 µM (inactive)
same,GI50,DU-145,> 100 µM (inactive)
same,GI50,EKVX,> 100 µM (inactive)
same,GI50,HCC 2998,> 100 µM (inactive)
same,GI50,HCT-116,> 100 µM (inactive)
same,GI50,HCT-15,> 100 µM
same,GI50,HL-60,> 100 µM (inactive)
same,GI50,HOP-62,> 100 µM (inactive)
same,GI50,HOP-92,> 100 µM (inactive)
same,GI50,HT-29,> 100 µM (inactive)
same,GI50,Hs-578T,> 100 µM (inactive)
same,GI50,IGROV-1,> 100 µM (inactive)
same,GI50,K562,> 100 µM (inactive)
same,GI50,KM12,> 100 µM (inactive)
same,GI50,LOX IMVI,> 100 µM (inactive)
same,GI50,M14,> 100 µM (inactive)
same,GI50,MCF7,97.1 µM (inactive)
same,GI50,MDA-MB-231,> 100 µM (inactive)
same,GI50,MDA-MB-435,> 100 µM (inactive)
same,GI50,MDA-N,> 100 µM (inactive)
same,GI50,MOLT-4,> 100 µM (inactive)
same,GI50,Malme-3M,> 100 µM (inactive)
same,GI50,NCI-H23,> 100 µM (inactive)
same,GI50,NCI-H522,> 100 µM (inactive)
same,GI50,NCI/ADR-RES,> 100 µM (inactive)
same,GI50,OVCAR-3,> 100 µM (inactive)
same,GI50,OVCAR-4,> 100 µM (inactive)
same,GI50,OVCAR-5,> 100 µM (inactive)
same,GI50,OVCAR-8,> 100 µM (inactive)
same,GI50,PC-3,> 100 µM (inactive)
same,GI50,RPMI-8226,> 100 µM (inactive)
same,GI50,RXF 393,> 100 µM (inactive)
same,GI50,SF-268,> 100 µM (inactive)
same,GI50,SF-295,> 100 µM (inactive)
same,GI50,SF-539,> 100 µM (inactive)
same,GI50,SK-MEL-28,> 100 µM (inactive)
same,GI50,SK-MEL-2,> 100 µM (inactive)
same,GI50,SK-MEL-5,> 100 µM (inactive)
same,GI50,SN12C,> 100 µM (inactive)
same,GI50,SNB-19,> 100 µM (inactive)
same,GI50,SNB-75,> 100 µM (inactive)
same,GI50,SW-620,> 100 µM (inactive)
same,GI50,T47D,> 100 µM (inactive)
same,GI50,TK-10,> 100 µM (inactive)
same,GI50,U-251,> 100 µM (inactive)
same,GI50,UACC-257,> 100 µM (inactive)
same,GI50,UACC-62,> 100 µM (inactive)
same,GI50,UO-31,> 100 µM (inactive)
CC(=NNC(=S)Nc1ccccc1)c1cccc(C(C)=NNC(=S)Nc2ccccc2)n1,GI50,786-0,1.75 µM (inactive)
same,GI50,A498,7.55 µM (inactive)
same,GI50,A549,3.94 µM (inactive)
same,GI50,ACHN,1.23 µM (inactive)
same,GI50,BT-549,12.2 µM (inactive)
same,GI50,CAKI-1,1.79 µM (inactive)
same,GI50,CCRF-CEM,1.74 µM (inactive)
same,GI50,COLO 205,2.48 µM (inactive)
same,GI50,DU-145,> 20.1 µM (inactive)
same,GI50,EKVX,6.98 µM (inactive)
same,GI50,HCC 2998,3.64 µM (inactive)
same,GI50,HCT-116,3.32 µM (inactive)
same,GI50,HCT-15,4.58 µM
same,GI50,HL-60,0.189 µM (active)
same,GI50,HOP-62,2.11 µM (inactive)
same,GI50,HOP-92,2.25 µM (inactive)
same,GI50,HT-29,2.34 µM (inactive)
same,GI50,Hs-578T,> 37.8 µM (inactive)
same,GI50,IGROV-1,2.08 µM (inactive)
same,GI50,K562,3.04 µM (inactive)
same,GI50,KM12,3.38 µM (inactive)
same,GI50,LOX IMVI,2.24 µM (inactive)
same,GI50,M14,1.97 µM (inactive)
same,GI50,MCF7,3.11 µM (inactive)
same,GI50,MDA-MB-231,4.62 µM (inactive)
same,GI50,MDA-MB-435,8.32 µM (inactive)
same,GI50,MDA-N,14.1 µM (inactive)
same,GI50,MOLT-4,2.29 µM (inactive)
same,GI50,Malme-3M,4.57 µM (inactive)
same,GI50,NCI-H226,1.06 µM (active)
same,GI50,NCI-H23,7.46 µM (inactive)
same,GI50,NCI-H460,2.65 µM (inactive)
same,GI50,NCI-H522,5.35 µM (inactive)
same,GI50,NCI/ADR-RES,1.61 µM (inactive)
same,GI50,OVCAR-3,1.38 µM (inactive)
same,GI50,OVCAR-4,3.66 µM (inactive)
same,GI50,OVCAR-5,> 22 µM (inactive)
same,GI50,OVCAR-8,0.968 µM (active)
same,GI50,PC-3,5.21 µM (inactive)
same,GI50,RPMI-8226,2.83 µM (inactive)
same,GI50,RXF 393,3.01 µM (inactive)
same,GI50,SF-295,3.62 µM (inactive)
same,GI50,SF-539,1.47 µM (inactive)
same,GI50,SK-MEL-28,> 100 µM (inactive)
same,GI50,SK-MEL-2,41.1 µM (inactive)
same,GI50,SK-MEL-5,2.64 µM (inactive)
same,GI50,SK-OV-3,5.98 µM (inactive)
same,GI50,SN12C,4.48 µM (inactive)
same,GI50,SNB-19,19.3 µM (inactive)
same,GI50,SNB-75,10.8 µM (inactive)
same,GI50,SW-620,3.66 µM (inactive)
same,GI50,T47D,5.96 µM (inactive)
same,GI50,TK-10,4.24 µM (inactive)
same,GI50,U-251,4.99 µM (inactive)
same,GI50,UACC-257,8.83 µM (inactive)
same,GI50,UACC-62,2.43 µM (inactive)
same,GI50,UO-31,2.34 µM (inactive)
